Measured values: US8273708B2, “Methods of treatment of ocular surface pathologies” (priority 2004, dated 2012)
Entries after “also recorded” stand apart in the source; their conditions may differ.

Tests used:
Type in all cases: in vivo, rat
[1] = system: corneal epithelial tight junctions; experiment: Corneal tight junction permeability by surface biotinylation after benzalkonium chloride
Description: Images obtained by fluorescence of the external corneal surface in the rat after ex vivo avidin-fluorescein biotinylation of the whole eye by avidin-fluorescein following cryosection (6 μm) (external side of cornea facing up)
(§1) Animals: Four groups of male Wistar rats (Janvier, Le Genest St Isle, France), weighing 300-350 g were used: BAK+sodium carmellose, BAK+ML-7, PBS+sodium carmellose, PBS+ML-7; PBS and sodium carmellose being the solvents for benzalkonium (BAK) and ML-7, respectively.
(§2) ML-7 pretreatment: Animals received a local application of ML-7 (Sigma, France) 24 hours, 12 hours and 30 minutes before chemical induction of ocular inflammation. Thus, each eye was treated with 100 μg of ML-7 in 10 μl of eye drops (sodium carmellose 4 mg/0.4 ml) or with 10 μl of eye drops alone.
(§3) Inflammation induction: Thirty minutes after the third application of ML-7 or the eye drops alone, each eye was treated with 10 μl of 0.5% benzalkonium chloride (Sigma-Aldrich, Steinheim, Germany) in PBS or 10 μl of PBS alone. After 10 minutes, the eyes of all the rats were rinsed with 250 μl of sterile water.
(§4) Eye excision: Six hours after application of benzalkonium chloride or PBS, the animals were anesthetized with pentobarbital (80 mg/kg IP) (Ceva Santé Animale, Libourne, France), sacrificed by decapitation and the eyes were immediately excised to be frozen directly or after surface biotinylation (tight junction permeability test).
Measurement of tight junction permeability—Surface biotinylation: The permeability of tight junctions in the cornea was evaluated by biotinylation of surface proteins. The chosen biotinylation reagent is water-soluble and contains an aminocaproyl spacer group, which lowers steric hindrance during avidin coupling. Immediately after excision, the eyes were incubated for 30 minutes at room temperature with gentle stirring in a solution containing sodium biotinamidohexanecarboxylate and 3-sulfó-N-hydroxysuccinimide at 1 mg/mL, in PBS (Sigma-Aldrich, Steinheim, Germany). The eyes were then rinsed three times in PBS, embedded in protective tissue freezing medium (Tissue Tek® OCT compound, Sakura Finetek, Inc., CA, USA), frozen in liquid nitrogen and stored at −80° C. Six micrometer thick slices were prepared with a cryostat and fixed in cold acetone for 10 minutes. After drying, the slices were labelled for 30 minutes in the dark with avidin D-FITC (Vector Laboratories, Inc., Burlingame, Calif., USA) diluted 250-fold in PBS-Tween containing 1% BSA, then rinsed three times for 5 minutes in PBS-Tween, in the dark. The slides were then mounted in fluorescence medium (Cappel fluorostab embedding medium, MP Biomedicals, Inc., Aurora, Ohio, USA) and examined under a Nikon Eclipse 90 i fluorescence microscope equipped with a Nikon DXM1200F digital camera. The images were analyzed with Nikon Lucia image analysis software release 4.8. As no significant differences in corneal thickness were observed between the different experimental groups (102±10 μm, 110±9 μm, 115±13 μm and 124±8 μm for BAK+sodium carmellose, BAK+ML-7, PBS+sodium carmellose and PBS+ML-7 groups, respectively), the depth of fluorescence labelling reflects the permeability of external corneal epithelial tight junctions to the biotinylation reagent.

male Wistar rats [2] = experiment: Ocular inflammation (neutrophil infiltration) induced by corneal instillation of benzalkonium chloride: total MPO activity in the eye
Procedure: FIG. 3: Experimental protocol for example 2. Animals received two pretreatments with ML-7 [1 mg/kg given by the intraperitoneal (IP) route] on the day before instillation of 0.1% BAK (in the morning and evening) and one pretreatment two hours before instillation. They were sacrificed six hours after rinsing and the eyes were excised in order to assay MPO activity.
The benzalkonium salt (BAK) corneal irritation model has been widely used in both in vitro and in vivo studies. The protocol is based on an in vitro study (Xu et al., 2000) adapted to in vivo conditions in the rat after preliminary tests to adjust times and concentrations.
Animals: Male Wistar rats (200-250 g) housed in individual cages were used. Animals were given a standard diet (UAR, Villemoisson, Epinay sur Orge) and drinking water ad libitum.
Inflammation induction: Inflammation was induced by instillation in the eye of 10 μl of 0.1% BAK solution (1 mg/ml). The control eye was instilled with 10 μl of 1×PBS. Ten minutes after instillation, the eyes were rinsed with 1 ml of sterile water.
Assay of myeloperoxidase activity: The eyes were excised and homogenized in phosphate buffer with the aid of a polytron. They were then subjected to three freeze/thaw cycles (liquid nitrogen/37° C. water bath). After centrifugation at 10,000 rpm for 15 min at 4° C., the pellets were resuspended in HTAB buffer and sonicated for 10 sec. After a second centrifugation, MPO activity was assayed in the supernatant in a reaction buffer containing O-dianisidine hydrochloride and 0.0005% hydrogen peroxide. The change in absorbance at 460 nm was measured on a spectrophotometer.
Experimental protocol: Animals received two pretreatments with ML-7 (1 mg/kg IP) on the day before instillation of 0.1% BAK (morning and evening) and one pretreatment two hours before instillation. They were sacrificed six hours after rinsing and the eyes were excised in order to assay total myeloperoxidase (MPO) activity (FIG. 3).

male Wistar rats [3] = experiment: Polynuclear eosinophil infiltration induced by benzalkonium chloride, Direct Red count in the venous plexus region of the sclera; details: for number of polynuclear eosinophils in the venous plexus region of the sclera after benzalkonium chloride: 10 μl of 0.5% benzalkonium chloride, after six hours
Description: Upper panel: histological images after Direct Red staining. Lower panel: eosinophil count in venous plexus of sclera, density per square mm (means±SD; n=8)
as §1, §2, §3, §4
Measurement of polynuclear eosinophil infiltration: Polynuclear eosinophil leukocytes were specifically stained with Direct Red and counted in the venous plexus region of the sclera. […] Eosinophils, stained bright pink against a light background, were counted in the venous plexus region of the sclera under a Nikon Eclipse 90 i microscope equipped with a Nikon DXM1200F digital camera. The area of the zone to be counted was determined with Nikon Lucia image analysis software release 4.8 and counts were expressed as the number of eosinophils per mm^2. […]

male Wistar rats [4] = experiment: Ocular inflammation induced by corneal instillation of P48/80: total MPO activity in the whole eye; details: ML-7 1 mg/kg IP, two pretreatments the day before and one two hours before instillation
Procedure: FIG. 1: Experimental protocol for example 1.
The corneal irritation model which was used has been validated in the rat (Allansmith et al., Acta Ophtalmol, 1989; 192S: 145-153) and in the rabbit (Bucolo et al., J. Ocul. Pharmacol, 1993; 9: 321-332).
Animals: Three groups of eight male Wistar rats (200-250 g) housed in individual cages were used. Animals were given a standard diet (UAR, Villemoisson, Epinay sur Orge) and drinking water ad libitum.
The control eye was instilled with 10 μl of 1×PBS.
Assay of myeloperoxidase activity: The eyes were excised and homogenized in phosphate buffer with the aid of a polytron. They were then subjected to three freeze/thaw cycles (liquid nitrogen/37° C. water bath). After centrifugation at 10,000 rpm for 15 min at 4° C., the pellets were resuspended in HTAB buffer and sonicated for 10 sec. After a second centrifugation, MPO activity was assayed from the supernatant in a reaction buffer containing O-dianisidine hydrochloride and 0.0005% hydrogen peroxide. The change in absorbance at 460 nm was measured on a spectrophotometer.
They were sacrificed six hours after instillation and the eyes were excised in order to assay total myeloperoxidase (MPO) activity in the whole eye (FIG. 1).

Molecule | corneal thickness ([1]; BAK+ML-7 group) | corneal thickness ([1]; PBS+ML-7 group) | effect of ML-7 on the BAK-induced increase in diffusion and thickening of the fluorescent zone ([1]; local pretreatment, 100 μg ML-7 per eye, 24 hours, 12 hours and 30 minutes before BAK) | effect of ML-7 on the benzalkonium chloride-induced increase in MPO activity (male Wistar rats [2]; ML-7 1 mg/kg IP, two pretreatments the day before and one two hours before instillation) | effect of ML-7 on benzalkonium chloride-induced polynuclear eosinophil infiltration (male Wistar rats [3]; local application, 100 μg ML-7 in 10 μl eye drops, 24 hours, 12 hours and 30 minutes before BAK) | effect of ML-7 on the P48/80-induced increase in MPO activity (male Wistar rats [4]) | effect of benzalkonium chloride on corneal epithelial tight junctions (fluorescent penetration) ([1]; 10 μl of 0.5% benzalkonium chloride, after six hours) | corneal thickness ([1]; BAK+sodium carmellose group) | total MPO activity in the eye after benzalkonium chloride (male Wistar rats [2]; 10 μl of 0.1% BAK, rinsed after 10 minutes, after six hours) | increase in total MPO activity after benzalkonium chloride (male Wistar rats [2]; versus baseline 8.2±1.9 U/g.protein, after six hours) | number of polynuclear eosinophils in the venous plexus region of the sclera after benzalkonium chloride (male Wistar rats [3]) | number of polynuclear eosinophils in the venous plexus region of the sclera after benzalkonium chloride (male Wistar rats [3]; listed as BAK)
O=S(=O)(c1cccc2c(I)cccc12)N1CCCNCC1 [ML-7, 1-(5-iodonaphthalene-1-sulfonyl)-1H-hexahydro-1,4-diazepine] | 110±9 μm | 124±8 μm | suppressed | suppressed; also recorded: inhibited | significantly inhibited | prevented; also recorded: inhibited |  |  |  |  |  | 
benzalkonium chloride |  |  |  |  |  |  | opening of corneal epithelial tight junctions | 102±10 μm | 26.4±7.2 U/g.protein | 321% | highly significant increase | highly significant
